Test results taken from US20230312582A1, “Salts Of Nitrogen-Containing Heterocyclic Compound, And Solid Forms Of Salts, Pharmaceutical Composition And Use Thereof” (Wuhan Humanwell Innovative Drug Research And Development …, priority 2020, published 2023).
Converted amounts (≈) assume the structure as drawn. Where a name gives a salt, the structure may show the parent alone. Read-outs that look alike come from different tables or passages of the source. Each block holds one molecule with its values, some of them ahead of it.

How the values were obtained:
[1] = Thermodynamic solubility assay; type: physicochemical; settings: thermodynamic from solid
Protocol: The compounds were weighed out accurately, added to the prepared phosphate buffered saline at pH 7.4, FeSSIF solution at pH 5.8 and FaSSGF solution at pH 1.6 to prepare a solution at a concentration of 4 mg/mL, and the prepared solution was shaken at 1000 rpm for 1 h, and then incubated overnight at room temperature. The incubated solution was centrifuged at 12000 rpm for 10 min to remove undissolved particles, and the supernatant was transferred to a new centrifuge tube. After the supernatant was diluted properly, the supernatant was added with an acetonitrile solution containing an internal standard, and quantified by adopting a standard curve prepared by the same matrix.

[2] = In vivo pharmacokinetic assay in mice; settings: male, ICR, mouse, in vivo
Protocol: (§1) In vivo pharmacokinetic assay in rats was performed, wherein the used rats were 6 male SD rats weighing 180-240 g and fasted overnight. […] Blood samples were centrifuged at 8000 rpm for 6 min at 4° C., and plasma was collected and stored at −20° C. The plasma at each time point was taken and added with 3-5 times of acetonitrile solution containing the internal standard for mixing, and the mixed solution was subjected to vortex mixing for 1 min, and centrifuging at 4° C. for 10 min at 13000 rpm. The supernatant was taken and added with 3 times of water for mixing. A proper amount of the mixed solution was taken for LC-MS/MS analysis. The major pharmacokinetic parameters were analyzed using WinNonlin 7.0 software and a non-compartmental model.
In vivo pharmacokinetic assay in mice was performed, wherein the used mice were 18 male ICR mice weighing 20-25 g and fasted overnight. […] The rest of the procedure was performed in the same manner as in the pharmacokinetic assay in rats.

[3] = In vivo pharmacokinetic assay in rats; settings: male, SD, rat, in vivo
Protocol: as §1

[4] = Stability assay of human liver microsome; type: in vitro ADME; settings: human liver microsomes, NADPH, 37° C.
Protocol: The stability of human liver microsome was detected by in vitro co-incubation of compounds with human liver microsomes. Test compounds were first prepared as 10 mM stock solutions in DMSO solvent, followed by dilution of the compounds to 0.5 mM using acetonitrile. […] The deep-well plate was taken, […] was added to each well, then 15 μL of pre-warmed 6 mM NADPH solution was added to the plate to start the reaction, and the plate was incubated at 37° C. […] The supernatant was taken after centrifugation, and added with purified water at a ratio of 1:1 for LC-MS/MS detection to obtain the ratio of peak area of compound to peak area of internal standard at each time point. […] T1/2 was calculated using Excel.

[5] = Pharmacokinetic assay (crystal form) in mice; type: in vivo; settings: male, ICR, mouse, plasma, oral intragastric administration 10 mg/kg
Protocol: as §1, with “in mice” for “in rats”, “used mice” for “used rats”, “were 9” for “were 6”, “male ICR mice” for “male SD rats”, “weighing 20-25” for “weighing 180-240”, “overnight. 9 mice were taken and orally intragastrically administered with 10 mg/kg of the compound.” for “overnight.”

[6] = Dynamic solubility in water and three biological vehicles; type: physicochemical; settings: for Crystal form change: XRPD of solid; for pH: filtrate
Protocol: The dynamic solubility of the crystal form A of hydrochloride, the crystal form A of fumarate, the crystal form A of benzenesulfonate and the free base crystal form A prepared repeatedly was evaluated in water and three biological vehicles. […] After centrifugation of the samples at each time point (0.45 μm PTFE filter head), the filtrate was determined for HPLC concentration and pH, and the centrifuged solid samples were tested for XRPD.

[7] = Solid stability, 1 week; type: physicochemical; settings: for Purity (area %): HPLC; for Crystal form change: XRPD
Protocol: The crystal form A of hydrochloride, the crystal form A of fumarate, the crystal form A of benzenesulfonate and the free base crystal form A prepared repeatedly were placed at 25° C./60% RH and 40° C./75% RH for 1 week, and then the physical and chemical stability of the samples were tested by XRPD and HPLC. […] No significant purity decrease or crystal form transformation occurred in any of the other samples after being placed under 2 conditions for 1 week.

[8] = Polarizing microscope (PLM) image, particle size; type: physicochemical; settings: room temperature
Source text: The polarizing microscope data are acquired by an Axio Lab. A1 upright microscope at room temperature.

[9] = Hygroscopicity by dynamic vapor sorption (DVS); type: physicochemical; settings: for After DVS test Whether the crystal form is changed: 0% RH to 95% RH to 0% RH; for After DVS test Whether the crystal form is changed / Hygroscopicity / Vapor sorption (25° C./80% RH): 25° C.; for Hygroscopicity / Vapor sorption (25° C./80% RH): DVS; for DVS curve vapor sorption: at 0% RH to 80% RH; for Risk evaluation: hygroscopicity evaluation
Protocol: Dynamic vapor sorption (DVS) curves are acquired on a DVS Intrinsic in SMS (Surface Measurement System). The relative humidity at 25° C. is corrected with the deliquescence points of LiCl, Mg(NO3)2 and KCl.
Hygroscopicity of the crystal form A of hydrochloride, the crystal form A of fumarate, the crystal form A of benzenesulfonate and the free base crystal form A prepared repeatedly was evaluated using a dynamic vapor sorption (DVS) instrument. Starting at 0% relative humidity (0% RH), the test acquired the percentage change of mass of the sample when humidity changed (0% RH to 95% RH to 0% RH) at a constant temperature of 25° C.

[10] = intravenous injection 1 mg/kg, read-out: Vz
[11] = oral intragastric administration 10 mg/kg
[12] = listed as crystal form A of hydrochloride

solubility ([1]; aqueous buffer, PBS, pH 7.4, room temperature overnight, read-out: Solubility PBS (pH 7.4)): 6.3 mg/mL (≈ 15.5 mM)
solubility ([1]; fassgf or other biorelevant, FaSSGF, pH 1.6, room temperature overnight, read-out: Solubility FaSSGF (pH 1.6)): 66.5 mg/mL (≈ 164 mM)
solubility ([1]; FeSSIF, pH 5.8, room temperature overnight, read-out: Solubility FeSSIF (pH 5.8)): 18.3 mg/mL (≈ 45.1 mM)
AUC(0-t) ([2]; intravenous injection 1 mg/kg): 290 ng·h/mL
clearance ([2]; intravenous injection 1 mg/kg): 57.5 mL/min/kg
half-life ([2]; intravenous injection 1 mg/kg): 20.4 min
Vd [2, 10]: 1.67 L/kg
AUC(0-t) [2, 11]: 2900 ng·h/mL
Cmax [2, 11]: 2040 ng/mL
Tmax [2, 11]: 15 min
half-life [2, 11]: 49.8 min
AUC(0-t) ([3]; intravenous injection 1 mg/kg): 580 ng·h/mL
clearance ([3]; intravenous injection 1 mg/kg): 29.3 mL/min/kg
half-life ([3]; intravenous injection 1 mg/kg): 27 min
Vd [3, 10]: 1.12 L/kg
AUC(0-t) [3, 11]: 4870 ng·h/mL
Cmax [3, 11]: 2590 ng/mL
Tmax [3, 11]: 25.2 min
half-life [3, 11]: 78.6 min
Remaining percentage of compound after 30 min of incubation (%) [4]: 41.2%
half-life at 1.5 μM [4]: 24.1 min
AUC(0-t) [5]: 2900 ng·h/mL
Cmax [5]: 2040 ng/mL
Tmax [5]: 15 min
half-life [5]: 49.8 min
SMILES: O=C(COCCc1cnn[nH]1)N1Cc2cnc(NC3Cc4ccccc4C3)nc2C1 [Control compound, reference compound]

SMILES: C[C@H](Cc1cnn[nH]1)OCC(=O)N1Cc2cnc(NC3Cc4ccccc4C3)nc2C1 [Crystal form A of fumarate]
Crystal form change ([6]; H2O, 1 h): No
Crystal form change ([6]; H2O, 4 h): No
Crystal form change ([6]; H2O, 24 h): No
Crystal form change ([6]; SGF, 1 h): No
Crystal form change ([6]; SGF, 4 h): No
Crystal form change ([6]; SGF, 24 h): No
pH ([6]; FaSSIF, 1 h): 4.9
pH ([6]; FaSSIF, 4 h): 4.4
pH ([6]; FaSSIF, 24 h): 4.2
pH ([6]; FeSSIF, 1 h): 4.8
pH ([6]; FeSSIF, 4 h): 4.9
pH ([6]; FeSSIF, 24 h): 4.8
pH ([6]; H2O, 1 h): 3.6
pH ([6]; H2O, 4 h): 3.7
pH ([6]; H2O, 24 h): 3.6
pH ([6]; SGF, 1 h): 1.9
pH ([6]; SGF, 4 h): 1.9
pH ([6]; SGF, 24 h): 1.9
Purity/initial purity (%) ([7]; 25° C./60% RH): 100.1%
Purity (area %) ([7]; 25° C./60% RH): 99.28 area %
Crystal form change ([7]; 25° C./60% RH): No
Purity/initial purity (%) ([7]; 40° C./75% RH): 100.1%
Purity (area %) ([7]; 40° C./75% RH): 99.33 area %
Crystal form change ([7]; 40° C./75% RH): No
particle size [8]: less than 50 μm
After DVS test Whether the crystal form is changed [9]: No
Hygroscopicity [9]: Slightly
Vapor sorption (25° C./80% RH) [9]: 0.60%
DVS curve vapor sorption [9]: less than 0.60%
Risk evaluation [9]: None

SMILES: C[C@H](Cc1cnn[nH]1)OCC(=O)N1Cc2cnc(NC3Cc4ccccc4C3)nc2C1 [Crystal form A of hydrochloride]
pH ([6]; FaSSIF, 1 h): 5.7
pH ([6]; FaSSIF, 4 h): 5.5
pH ([6]; FaSSIF, 24 h): 5.2
pH ([6]; FeSSIF, 1 h): 4.9
pH ([6]; FeSSIF, 4 h): 4.9
pH ([6]; FeSSIF, 24 h): 4.9
pH ([6]; H2O, 1 h): 2.3
pH ([6]; H2O, 4 h): 2.2
pH ([6]; H2O, 24 h): 2.3
pH ([6]; SGF, 1 h): 1.8
pH ([6]; SGF, 4 h): 1.8
pH ([6]; SGF, 24 h): 1.9
solubility in each system compared with that of the free base crystal form A ([6]; water, SGF, FaSSIF, FeSSIF): significantly improved
Purity/initial purity (%) ([7]; 25° C./60% RH): 99.5%
Purity (area %) ([7]; 25° C./60% RH): 96.68 area %
Crystal form change ([7]; 25° C./60% RH): No
Purity/initial purity (%) ([7]; 40° C./75% RH): 79.9%
XRPD crystallinity ([7]; 40° C./75% RH): decreased
Purity (area %) ([7]; 40° C./75% RH): 77.67 area %
Crystal form change ([7]; 40° C./75% RH): No*
particle size [8]: less than 50 μm
After DVS test Whether the crystal form is changed [9]: Yes*
After DVS test Whether the crystal form is changed [9, 12]: changed crystal form
Hygroscopicity [9]: Moderately
Vapor sorption (25° C./80% RH) [9]: 3.85%
Hygroscopicity [9, 12]: had hygroscopicity
DVS curve vapor sorption [9]: less than 3.85%
Risk evaluation [9]: Significantly increased

SMILES: C[C@H](Cc1cnn[nH]1)OCC(=O)N1Cc2cnc(NC3Cc4ccccc4C3)nc2C1 [Free base crystal form A]
Crystal form change ([6]; FaSSIF, 1 h): No
Crystal form change ([6]; FaSSIF, 4 h): No
Crystal form change ([6]; FaSSIF, 24 h): No
Crystal form change ([6]; FeSSIF, 1 h): No
Crystal form change ([6]; FeSSIF, 4 h): No
Crystal form change ([6]; FeSSIF, 24 h): No
Crystal form change ([6]; H2O, 1 h): No
Crystal form change ([6]; H2O, 4 h): No
Crystal form change ([6]; H2O, 24 h): No
Crystal form change ([6]; SGF, 1 h): No
Crystal form change ([6]; SGF, 4 h): No
Crystal form change ([6]; SGF, 24 h): No
pH ([6]; FaSSIF, 1 h): 6.5
pH ([6]; FaSSIF, 4 h): 6.6
pH ([6]; FaSSIF, 24 h): 6.6
pH ([6]; FeSSIF, 1 h): 5.1
pH ([6]; FeSSIF, 4 h): 5.1
pH ([6]; FeSSIF, 24 h): 5.1
pH ([6]; H2O, 1 h): 8.4
pH ([6]; H2O, 4 h): 8.4
pH ([6]; H2O, 24 h): 8.6
pH ([6]; SGF, 1 h): 1.9
pH ([6]; SGF, 4 h): 1.9
pH ([6]; SGF, 24 h): 2.0
Purity/initial purity (%) ([7]; 25° C./60% RH): 100.0%
Purity (area %) ([7]; 25° C./60% RH): 98.67 area %
Crystal form change ([7]; 25° C./60% RH): No
Purity/initial purity (%) ([7]; 40° C./75% RH): 100.0%
Purity (area %) ([7]; 40° C./75% RH): 98.60 area %
Crystal form change ([7]; 40° C./75% RH): No
particle size [8]: less than 50 μm
After DVS test Whether the crystal form is changed [9]: No
Hygroscopicity [9]: Slightly
Vapor sorption (25° C./80% RH) [9]: 1.03%
Risk evaluation [9]: None
